Assay results published in patent publication US20080248076A1, “ANTIMICROBIAL RUBBER BANDS” (priority 2007, published 2008).
“And” between values parts separate entries of the source, which are not always exact repeats. Equal entries are not always repeated.

What was measured:
[1] = test system: all of the organisms tested (Escherichia coli, Staphylococcus aureus, Pseudomonas aeruginosa, Pasteurella multocida); experiment: Growth Inhibitor Test, overall conclusion; assay type: cell-based; details: versus sodium hypochlorite at 100 ppm disinfection concentration
Description: (§1) Test Scope: The Growth Inhibitor Test was used to determine the toxicity of a rubber band containing zinc pyrithione. Any presence of toxic residues in the test material (rubber band) will inhibit bacterial growth in the agar medium. A zone of inhibition or no growth of test organism around the test material indicates the presence of toxic residues in the test material. The intensity of inhibition is indicative of the concentration of the toxic agent.
(§2) Test Objective: Four (4) test organisms were used in this assay to determine toxicity. Each organism was suspended in specific agar medium, incubated at 35° C. for 48 hours, and then read to determine growth or no growth of test organism. Each test organism was grown individually in a Petri plate and the test material was planted unto the agar plate to determine the outcome. If no toxic residues were present in the test material, then the test bacteria grew around and under the test medium producing a “lawn effect.” If inhibitory substances were present in the test material, it would diffuse into the agar medium and prevent the growth of bacterial in the medium. The larger the zone of inhibition, the higher the concentration of toxic substances.
Test Organisms: The following four (4) organisms were employed: Escherichia coli, Staphylococcus aureus, Pseudomonas aeruginosa, and Pasteurella multocida. […]

[2] = test system: Pasteurella multocida; experiment: Growth Inhibitor Test (zone of inhibition / kill zone on agar); assay type: cell-based; details: Tryptic Soy Agar, 48 hours at 32.0° C, rubber with 1000 ppm zinc pyrithione, Sodium Hypochlorite @ 100 ppm on paper disc
Description: as §1, §2
(§3) Test Organisms: The following four (4) organisms were employed: Escherichia coli, Staphylococcus aureus, Pseudomonas aeruginosa, and Pasteurella multocida. Each test organism's concentration was estimated to be 100,000 cfu to 1,000,000 cfu per milliliter.
(§4) Materials used included: 1. Baird Parker Agar for Staphylococcus aureus; 2. Standard Methods Agar for E. coli and Pseudomonas aeruginosa; 3. Tryptic Soy Agar for Pasteurella multocida; 4. 100 ppm chlorinated water to serve as a positive control; 5. Distilled water to serve as the negative control; 6. Quebec Colony Counter; 7. Incubator at 32.0 C; 8. Petri plates (85 mm diameter); 9. Vernier calibrators; 10.

[3] = test system: Escherichia coli; experiment: as above; assay type: cell-based; details: E. coli, Standard Methods Agar, 48 hours at 32.0° C; heading says test organism died, assay invalid; Sodium Hypochlorite @ 100 ppm on paper disc
Description: as §1, §2, §3, §4

[4] = test system: Staphylococcus aureus; experiment: as above; assay type: cell-based; details: Baird Parker Agar, 48 hours at 32.0° C, rubber with 1000 ppm zinc pyrithione, Sodium Hypochlorite @ 100 ppm on paper disc
Description: as §1, §2, §3, §4

[5] = test system: Pseudomonas aeruginosa; experiment: as above; assay type: cell-based; details: Standard Methods Agar, 48 hours at 32.0° C, rubber with 1000 ppm zinc pyrithione, Sodium Hypochlorite @ 100 ppm on paper disc
Description: as §1, §2, §3, §4

[6] = test system: Pseudomonas aeruginosa; details: it has been reported; cited from earlier work

Structure (SMILES): [O-][n+]1ccccc1[S-].[O-][n+]1ccccc1[S-].[Zn+2] [zinc pyrithione, zinc 2-pyridinethiol-n-oxide]
- toxicity compared with sodium hypochlorite (similar kill zones) [1]: equal to the potency of sodium hypochlorite at 100 ppm

Structure (SMILES): OCl [Sodium Hypochlorite]
- zone of inhibition or kill zone [2]: 3.5 cm and 3.2 cm
- zone of inhibition or kill zone [3]: 1.6 cm and 1.4 cm
- zone of inhibition or kill zone [4]: 3.0 cm and 2.5 cm
- kill zone [5]: 3.1 cm and 3.0 cm

Structure (SMILES): Oc1cc(Cl)ccc1Oc1ccc(Cl)cc1Cl [triclosan]
- efficacy against Pseudomonas aeruginosa [6]: little or no efficacy
